Source: patent publication US5770688A, “Method and composition for the treatment of mammalian HIV infection” (GSF-Forschungszentrum fur Umwelt und Gesundheit GmbH, priority 1989, dated 1998)
Entries after “also recorded” stand apart in the source; their conditions may differ.

Columns and labels:
HIV = HIV release from chronically infected cells (Biomek 1000); format: cell-based; conditions: FIGS. 6-19
Description: (§1) A series of experiments and which are illustrated graphically in FIGS. 6 through 34, respectively, were designed to detect two extremes. In particular the tests were designed to detect the inhibition of viral release and/or the release of virus which has a reduced ability to infect other cells. This reduced ability to infect other cells is represented, for example, by glycosylation inhibitors, the direct effect on virus release is represented by acylation inhibitors, RT inhibitors and melittin (Seq. ID NO:1). The most important feature of this experimental design, however, is to detect the toxicity of melittin. The present experiments were carried out on both the astrocytoma cell line LC5-HIV (cloned infected cells) and T-lymphocytoma cell line KE37-1/IIIβ (cloned infected cells with HTLV-IIIβ). In both cases the results were essentially identical.
(§2) In the present series of experiments HIV release was tested by a fully automated laboratory robot system and which is manufactured by Beckman Instruments as the Biomek 1000. This system performed the following steps. First, chronically infected cells (cloned) are plated in microtiter plates and grown for a period of seven days. They are then challenged by melittin (Seq. ID NO:1) during this period either for the final day or throughout the period as shown in the figures. The number of living cells are quantified by MTT, that is by a metabolic (dehydrogenase) test. The MTT test is automatically performed. The toxic effect is detected at the time of the experiment and not in a separate control experiment. Furthermore, the supernatant, and which contains released virus cells from the period of time which elapsed from the last wash, and which may vary from 24 hours to 7 days, is collected from the culture, and an aliquot is saved for virus quantification by employing antigen or viral enzyme reverse transcriptase (RT). Furthermore, an aliquot is added to a culture of uninfected cells in microtiter plates for subsequent measurement of the ability of the virus cells to reinfect these uninfected cells. In this regard, the number of infected cells is automatically quantified by an immunoperoxidase staining technique. The test results, as shown, are expressed in terms of toxicity of the melittin (MTT test); the release of HIV from the primary culture (RT test); and the ability of the released virus to infect previously uninfected cells.

HIV-infected LC5 cells = assay: MTT toxicity/killing of HIV infected cells (Biomek 1000); format: cell-based, human
Experimental: The KE37-1 (uninfected) and KE37-1/111β (infected) cell lines discussed below are commercially available from the Dr. Robert Gallows Laboratory of the NIH in the United States of America and grown in a medium of RPMI 1640 (GIBCO) and further supplemented with 10% fetal calf serum which contained approximately 100 units of penicillin, 100 μg streptomycin, and approximately 0.25 μg fungizone (Amphotericin B) per milliliter. The human mesenchymal cell lines LC5 and LC5-HIV, discussed below, are deposited with the Collection De L'Institut Pasteur of Paris, France on Mar. 9, 1989 and given the accession numbers I-842 and I-843, respectively. The LC5 and LC5-HIV cell lines were grown in a medium of RPMI 1640 and supplemented with 10% fetal calf serum.
as §1, §2

[1] = tolerability and clinical investigation of FIV infected cats; format: in vivo
Description: In the following series of experiments, two naturally FIV infected cats (M and G) were used. These particular cats were kept for more than one year under constant observation in the Clinic for Internal Medicine at the Veterinary School in Munich, Germany before the onset of melittin (Seq. ID NO:1) treatment. In each cat, FIV infection had been confirmed by detecting an antibody ELISA. In this regard, a test marketed under the tradename PetChek® and which is available from the same company in Portland, Maine was employed. As best seen in FIG. 53. The antibody titer against FIV in both cats was approximately 1:50. As a general matter, the overall physical condition of both cats was good during the observation period. […]
During the experiment it was determined that detectable blood serum levels of melittin (Seq. ID NO:1) of about 5 ng/ml could be detected following an injection of melittin equal to […] a few minutes after injection. […] In vitro data has shown that melittin, after this time interval, is found within the cells where it can be detected in tact for more than 48 hours. […] The quantitative effect of melittin on FIV replication was determined quantitatively by utilizing FIV-PCR employing nested primers from the gag region. Quantification was based upon the determination of amplified product in identical samples which have been amplified after different cycle times. […]

Gly-Ile-Gly-Ala-Val-Leu-Lys-Val-Leu-Thr-Thr-Gly-Leu-Pro-Ala-Leu-Ile-Ser-Trp-Ile-Lys-Arg-Lys-Arg-Gln-Gln-Amide [melittin]
inhibition of viral cell (HIV) release from infected cells, in words (HIV): inhibition of viral cell release from infected cells; also recorded: inhibited HIV release | killing concentration compared with concentration for effect on HIV release (HIV-infected LC5 cells): ten times higher than the effect on HIV release | lysis of HIV-infected LC5 cells (HIV-infected LC5 cells): able to lyse HIV-infected LC5 cells | selectivity for infected cells, in words (HIV-infected LC5 cells; FIGS. 6-19): appears to not selectively affect the infected cells | critical concentration at which all infected cells were killed (HIV-infected LC5 cells; infected): 10 μg per ml | tolerability / adverse reactions ([1]; 50 to 500 mg/kg s.c. twice weekly, eight weeks): appeared to tolerate the numerous injections without any clinically noticeable negative reactions; also recorded: no adverse reaction or clinical abnormalities could be observed in either animal | pneumonitis ([1]; cat M): improved during the melittin treatment
